According to ChEMBL document CHEMBL1201862, “PubChem BioAssay data set” (2004):
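Each compound was tested at five concentrations against cells in 96-well plates for 48 hours. Here, GI50 denotes the concentration required for 50% inhibition of growth.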 Calls of active or inactive are those of the source. Cut-off read from the data, not from the text of the source: active = GI50 up to about 1.1 µM and inactive = higher.

Legend:
Assay in all cases: growth of human tumour cells (NCI), 48 h
[1] = test system: DLD-1
[2] = test system: DMS-114
[3] = test system: DMS-273
[4] = test system: KM-20L2
[5] = test system: LXFL 529
[6] = test system: M19-MEL
[7] = test system: SNB-78
[8] = test system: XF498
[9] = test system: RXF 631

FC(F)(F)c1nc(-c2ccccc2Cl)[nH]c1C(F)(F)F
GI50 [1]: 1.13 µM (inactive)
GI50 [2]: 0.673 µM (active)
GI50 [3]: 0.873 µM (active)
GI50 [4]: 0.619 µM (active)
GI50 [5]: 0.935 µM (active)
GI50 [6]: 0.697 µM (active)
GI50 [7]: 1.06 µM (active)
GI50 [8]: 0.621 µM (active)

O=C1c2ccccc2C(=O)C1C(c1ccc([N+](=O)[O-])cc1)C1C(=O)c2ccccc2C1=O
GI50 [1]: 34.8 µM (inactive)
GI50 [2]: > 10 µM (inactive)
GI50 [3]: 99.1 µM (inactive)
GI50 [4]: > 100 µM (inactive)
GI50 [5]: 30.8 µM (inactive)
GI50 [9]: 12.1 µM (inactive)
GI50 [7]: 33.4 µM (inactive)
GI50 [8]: 55.2 µM (inactive)

O=c1nc(NC(c2ccccc2)(c2ccccc2)c2ccccc2)ccn1CCNCCn1ccc(NC(c2ccccc2)(c2ccccc2)c2ccccc2)nc1=O
GI50 [1]: 6.53 µM (inactive)
GI50 [2]: 3.23 µM (inactive)
GI50 [3]: 4.16 µM (inactive)
GI50 [4]: 10 µM (inactive)
GI50 [5]: 5.26 µM (inactive)
GI50 [6]: 4.46 µM (inactive)
GI50 [8]: 4.11 µM (inactive)

CC1CC2C(=O)N(c3ccccc3)C(=O)C2c2c1c1ccccc1n2Cc1ccccc1 (stereo unspecified)
GI50 [1]: 12.5 µM (inactive)
GI50 [2]: 31 µM (inactive)
GI50 [5]: > 100 µM (inactive)
GI50 [6]: > 100 µM (inactive)

C1=C(c2ccccc2)CN(c2ccccc2)OC1
GI50 [1]: 78.5 µM (inactive)
GI50 [3]: > 100 µM (inactive)
GI50 [4]: 63.5 µM (inactive)
GI50 [5]: 64 µM (inactive)
GI50 [6]: 47.5 µM (inactive)
GI50 [7]: > 100 µM (inactive)
GI50 [8]: > 100 µM (inactive)

CCOC(=O)CC[C@H](NC(=O)c1nc[nH]c1[N+](=O)[O-])C(=O)OCC
GI50 [1]: > 100 µM (inactive)
GI50 [2]: > 100 µM (inactive)
GI50 [3]: > 100 µM (inactive)
GI50 [4]: > 100 µM (inactive)
GI50 [5]: > 100 µM (inactive)
GI50 [7]: > 100 µM (inactive)

CCCCCCCCCCCC(=O)OCC1OC(n2cc(F)c(=O)[nH]c2=O)C(N)C(OC(=O)CCCCCCCCCCC)C1O (stereo unspecified)
GI50 [2]: 49.5 µM (inactive)
GI50 [3]: 44.3 µM (inactive)
GI50 [4]: > 100 µM (inactive)
GI50 [5]: 33.9 µM (inactive)
GI50 [6]: > 100 µM (inactive)
GI50 [7]: 71.1 µM (inactive)

O=C(CCc1nnc(S)[nH]1)Nc1ccccc1Cl
GI50 [1]: > 100 µM (inactive)
GI50 [2]: > 100 µM (inactive)
GI50 [3]: > 100 µM (inactive)
GI50 [4]: > 100 µM (inactive)
GI50 [5]: > 100 µM (inactive)
GI50 [6]: > 100 µM (inactive)
GI50 [7]: > 100 µM (inactive)
GI50 [8]: > 100 µM (inactive)

COC(=O)c1nc(N)nc(O)c1-c1ccc(Cl)cc1
GI50 [1]: > 100 µM (inactive)
GI50 [2]: > 100 µM (inactive)
GI50 [3]: > 100 µM (inactive)
GI50 [4]: > 100 µM (inactive)
GI50 [5]: > 100 µM (inactive)
GI50 [6]: > 100 µM (inactive)
GI50 [9]: > 100 µM (inactive)
GI50 [7]: > 100 µM (inactive)
GI50 [8]: > 100 µM (inactive)

CCOC(=O)N1CCC(=O)C(CNC23CC4CC(CC(C4)C2)C3)C1 (stereo unspecified)
GI50 [1]: 21.1 µM (inactive)
GI50 [3]: 25.2 µM (inactive)
GI50 [4]: > 100 µM (inactive)
GI50 [5]: 18.3 µM (inactive)
GI50 [6]: 20.4 µM (inactive)
GI50 [9]: > 100 µM (inactive)
GI50 [7]: > 10 µM (inactive)
GI50 [8]: 18.1 µM (inactive)

O=c1[nH]cc(COCCCO)c(=O)[nH]1
GI50 [1]: > 100 µM (inactive)
GI50 [3]: > 100 µM (inactive)
GI50 [4]: > 100 µM (inactive)
GI50 [5]: > 100 µM (inactive)
GI50 [6]: > 100 µM (inactive)
GI50 [7]: > 100 µM (inactive)
GI50 [8]: > 100 µM (inactive)

CCOC(=O)/C(Br)=C1\OC(=O)c2ccccc2-c2ccccc21
GI50 [1]: 91.6 µM (inactive)
GI50 [2]: 23.1 µM (inactive)
GI50 [3]: 41.4 µM (inactive)
GI50 [5]: 29.4 µM (inactive)
GI50 [6]: 51.1 µM (inactive)
GI50 [9]: 33.3 µM (inactive)
GI50 [7]: 29.6 µM (inactive)
GI50 [8]: 65.8 µM (inactive)

COc1ccccc1/C=C1\CCC(CN2CCOCC2)C1=O (stereo unspecified)
GI50 [1]: 3.84 µM (inactive)
GI50 [2]: 16 µM (inactive)
GI50 [3]: 13.6 µM (inactive)
GI50 [4]: 16.6 µM (inactive)
GI50 [5]: 3.28 µM (inactive)
GI50 [6]: 6.7 µM (inactive)
GI50 [9]: 11.9 µM (inactive)
GI50 [7]: 20 µM (inactive)
GI50 [8]: 16.4 µM (inactive)

c1ccc2c3c([nH]c2c1)C1(CCCCC1)c1c([nH]c2ccccc12)C31CCCCC1
GI50 [1]: 96.2 µM (inactive)
GI50 [2]: 31.3 µM (inactive)
GI50 [3]: 22.3 µM (inactive)
GI50 [4]: 36.1 µM (inactive)
GI50 [5]: 40.8 µM (inactive)
GI50 [6]: 46 µM (inactive)
GI50 [7]: 18.8 µM (inactive)
GI50 [8]: > 100 µM (inactive)

O=[N+]([O-])c1ccc(N2C[N+](c3ccccc3)=NC(c3ccccc3)=N2)cc1
GI50 [1]: 32.2 µM (inactive)
GI50 [2]: 22.5 µM (inactive)
GI50 [3]: 45.1 µM (inactive)
GI50 [4]: 31.9 µM (inactive)
GI50 [5]: 30.2 µM (inactive)
GI50 [6]: 75.3 µM (inactive)
GI50 [7]: > 100 µM (inactive)
GI50 [8]: 21.4 µM (inactive)

O=C(O)CCCCCOc1cccnc1/C=N/NC1=NCCN1
GI50 [1]: > 100 µM (inactive)
GI50 [3]: > 100 µM (inactive)
GI50 [4]: > 100 µM (inactive)
GI50 [5]: > 100 µM (inactive)
GI50 [6]: > 100 µM (inactive)
GI50 [7]: > 100 µM (inactive)
GI50 [8]: 91 µM (inactive)

O=C(O)CSc1nnc(-c2ccc(O)cc2)[nH]1
GI50 [1]: > 100 µM (inactive)
GI50 [2]: > 100 µM (inactive)
GI50 [3]: > 100 µM (inactive)
GI50 [4]: > 100 µM (inactive)
GI50 [6]: > 100 µM (inactive)
GI50 [9]: > 100 µM (inactive)
GI50 [7]: > 100 µM (inactive)
GI50 [8]: > 100 µM (inactive)

COc1ccc(OCC(=O)O)c2c1CCC(C(C)C)C2=O (stereo unspecified)
GI50 [1]: > 100 µM (inactive)
GI50 [2]: > 100 µM (inactive)
GI50 [3]: > 100 µM (inactive)
GI50 [4]: > 100 µM (inactive)
GI50 [5]: > 100 µM (inactive)
GI50 [6]: > 100 µM (inactive)
GI50 [9]: > 100 µM (inactive)
GI50 [7]: > 100 µM (inactive)

CC(=O)OCC1OC(OC2CC3C(C)(C)C(OC(C)=O)CC[C@]3(C)C3CCC45CC4(CC[C@H]5C(C)CC(O)[C@@H](O)C(C)(C)O)[C@]23C)C(O)C(O)C1O (stereo partly specified)
GI50 [1]: 7.41 µM (inactive)
GI50 [3]: 7.62 µM (inactive)
GI50 [4]: 8.05 µM (inactive)
GI50 [5]: 5.65 µM (inactive)
GI50 [6]: 7.55 µM (inactive)
GI50 [8]: 19.8 µM (inactive)

Cc1nc2ccccc2c(=O)[nH]1
GI50 [1]: > 100 µM (inactive)
GI50 [4]: > 100 µM (inactive)
GI50 [5]: > 100 µM (inactive)
GI50 [6]: > 100 µM (inactive)
GI50 [9]: > 100 µM (inactive)
GI50 [7]: > 100 µM (inactive)
GI50 [8]: > 100 µM (inactive)

Cc1c(C(=O)/C=C/c2ccc(Cl)cc2)[n+]([O-])c2ccccc2[n+]1[O-]
GI50 [1]: 7.94 µM (inactive)
GI50 [2]: 4.1 µM (inactive)
GI50 [3]: 7.64 µM (inactive)
GI50 [4]: 7.11 µM (inactive)
GI50 [5]: 9.08 µM (inactive)
GI50 [6]: 15.2 µM (inactive)
GI50 [9]: 34.5 µM (inactive)
GI50 [7]: 22.1 µM (inactive)

O=c1c2cc(Cl)ccc2n2nnc3ccc(NCCNCCO)c1c32
GI50 [1]: 1.2 µM (inactive)
GI50 [2]: 1.49 µM (inactive)
GI50 [3]: 0.641 µM (active)
GI50 [4]: 0.962 µM (active)
GI50 [5]: 1.09 µM (active)
GI50 [6]: 1.55 µM (inactive)
GI50 [9]: 1.07 µM (active)
GI50 [7]: 2.35 µM (inactive)

CC(=O)OC(/C=C1/C=CC(=O)O1)COC(=O)c1ccccc1 (stereo unspecified) [ACETYLMELODORINOL]
GI50 [1]: > 31.2 µM (inactive)
GI50 [2]: > 31.2 µM (inactive)
GI50 [3]: > 31.2 µM (inactive)
GI50 [4]: > 31.2 µM (inactive)
GI50 [5]: > 31.2 µM (inactive)
GI50 [6]: > 31.2 µM (inactive)
GI50 [7]: > 31.2 µM (inactive)
GI50 [8]: > 31.2 µM (inactive)
